Patent US20240197682A1, “METHOD FOR TREATING NEUROLOGICAL DISEASES USING SUPRAMOLECULE POLYMER THERAPEUTICS” (The Regents of the University of California, priority 2022, published 2024)
Where two headings read alike, the source gives them in different places.

Assay: Parallel Artificial Membrane Permeability Assay (PAMPA)
Assay type: in vitro ADME
Settings: for PAMPA: P_app: 200 uM test compound, 4 hr; for Papp at 4 hr, 200 uM: PAMPA, read-out: PAMPA: P_app
Protocol: 5 uL of 1% lecithin (VWR 0579) dissolved in n-dodecane (Sigma Aldrich D221104) was applied to each well of a MultiScreen IP PAMPA filter plate (Millipore MAIPSWU10) and allowed to equilibrate for 5 minutes. 300 uL of PBS was added to the acceptor plate and 150 uL of 200 uM test compound dissolved in PBS and 30% ethanol was added to the donor wells before incubating the donor plate in the acceptor plate for 4 hr at 500 rpm. 100 uL was sampled from the donor and acceptor wells and the concentrations were measured by liquid chromatography-mass spectrometry (SCIEX 4500) or UV-VIS plate reader (BMG).

Row | PAMPA: P_app (pH 5.0) [×10e−6 cm/sec] | PAMPA: P_app (pH 7.4) [×10e−6 cm/sec] | Papp at 4 hr, 200 uM (pH 5.0, 200 uM test compound) [×10⁻⁶ cm/s] | Papp at 4 hr, 200 uM (pH 7.4, 200 uM test compound) [×10⁻⁶ cm/s] | SMILES
1 |  |  | 46.1 | > 50 | CNC(=O)c1cc2c(-c3ccccc3)nn(-c3ccccc3)c2o1 [Compound 38, N-methyl-1,3-diphenyl-1H-furo[2,3-c]pyrazole-5-carboxamide]
2 |  |  | 46.7 | 37 | CC(=O)Nc1ncc2c(-c3ccccc3)nn(Cc3cccnc3)c2n1 [Compound 42, N-(3-phenyl-1-(pyridin-3-ylmethyl)-1H-pyrazolo[3,4-d]pyrimidin-6-yl)acetamide]
3 | 47.1 | >50 |  |  | CNC(=O)c1ncc2c(-c3ccccc3)nn(Cc3cccc(F)c3)c2n1 [Compound 249]
4 | >50 | >50 |  |  | CNC(=O)c1ncc2c(-c3ccc(F)cc3)nn(Cc3ccccc3)c2n1 [Compound 250]
5 | >50 | >50 |  |  | CNC(=O)c1ncc2c(-c3cc(F)cc(F)c3)nn(Cc3ccccc3)c2n1 [Compound 252]
6 |  |  | 1.2 | 2 | CNC(=O)c1cnc2c(-c3cc(F)cc(F)c3)nn(Cc3ccccc3)c2n1 [Compound 262, 1-benzyl-3-(3,5-difluorophenyl)-N-methyl-1H-pyrazolo[3,4-b]pyrazine-6-carboxamide]
7 |  |  | 17.9 | 20.7 | CC(=O)Nc1ncc2c(-c3ccc(F)cc3)nn(Cc3ccccc3)c2n1 [Compound 263, N-(1-benzyl-3-(4-fluorophenyl)-1H-pyrazolo[3,4-d]pyrimidin-6-yl)acetamide]
8 | 27.1 | 26.4 |  |  | CC(=O)Nc1ncc2c(-c3ccccc3)nn(Cc3ccccc3)c2n1 [Compound 264]
9 |  |  | 8.8 | 8.9 | CC(=O)Nc1ncc2c(-c3ccccc3)nn(-c3ccccc3)c2n1 [Compound 272, N-(1,3-diphenyl-1H-pyrazolo[3,4-d]pyrimidin-6-yl)acetamide]
10 | 2.8 | 3.6 |  |  | CCC(=O)Nc1ncc2c(-c3ccccc3)nn(-c3ccccc3)c2n1 [Compound 273]
11 |  | >50 | > 50 |  | CC(=O)Nc1ncc2c(-c3ccccc3)nn(-c3cccnc3)c2n1 [Compound 276, N-(3-phenyl-1-(pyridin-3-yl)-1H-pyrazolo[3,4-d]pyrimidin-6-yl)acetamide]
12 | >50 | >50 |  |  | CCn1nc(-c2ccccc2)c2cnc(NC(C)=O)nc21 [Compound 277]
13 | >50 | >50 |  |  | CC(=O)Nc1ncc2c(-c3ccccc3)nn(Cc3ccccn3)c2n1 [Compound 278]

Further lines, the compound ahead of its results:

Row | SMILES | PAMPA: P_app (pH 5.0) [×10e−6 cm/sec] | PAMPA: P_app (pH 7.4) [×10e−6 cm/sec] | Papp at 4 hr, 200 uM (pH 5.0, 200 uM test compound) [×10⁻⁶ cm/s] | Papp at 4 hr, 200 uM (pH 7.4, 200 uM test compound) [×10⁻⁶ cm/s]
14 | CNc1nc(=O)n(-c2nc(-c3cccc(Cl)c3)oc2-c2ccc(Cl)c(F)c2)cc1F [Compound 1] | >50.0 | >50.0 |  | 
15 | CNC(=O)c1cc2c(NC(=O)C3CC3)nn(-c3ccccc3)c2s1 [Compound 3, 3-(cyclopropanecarboxamido)-N-methyl-1-phenyl-1H-thieno[2,3-c]pyrazole-5-carboxamide] |  | >50.0 | > 50 | 
16 | CNC(=O)c1ncc2c(-c3ccnc(C(C)(F)F)n3)nn(-c3ccc(Cl)cc3)c2n1 [Compound 22, 1-(4-chlorophenyl)-3-(2-(1,1-difluoroethyl)pyrimidin-4-yl)-N-methyl-1H-pyrazolo[3,4-d]pyrimidine-6-carboxamide] |  | >50.0 | > 50 | 
17 | CNC(=O)c1cc2c(C3=CCCC3)nn(-c3ccccc3)c2s1 [Compound 31, 3-(cyclopent-1-en-1-yl)-N-methyl-1-phenyl-1H-thieno[2,3-c]pyrazole-5-carboxamide] |  |  | 14.9 | 16.7
18 | COC(=O)c1cc2c(-c3ccccc3)nn(-c3ccccc3)c2[nH]1 [Compound 34, methyl 1,3-diphenyl-1,6-dihydropyrrolo[2,3-c]pyrazole-5-carboxylate] |  |  | 24.4 | 14.3
19 | CNC(=O)c1ncc2c(-c3ccnc(C(F)(F)F)n3)nn(-c3ccc(Cl)cc3)c2n1 [Compound 37, 1-(4-chlorophenyl)-N-methyl-3-(2-(trifluoromethyl)pyrimidin-4-yl)-1H-pyrazolo[3,4-d]pyrimidine-6-carboxamide] |  | >50.0 | > 50 | 
20 | Cc1cn(-c2nc(-c3ccccc3)oc2-c2ccccc2)c(=O)nc1OCCO [Compound 77, 1-(2,5-diphenyl-1,3-oxazol-4-yl)-4-(2-hydroxyethoxy)-5-methyl-1,2-dihydropyrimidin-2-one] |  | >50.0 | > 50 | 
21 | CNc1nc(=O)n(-c2nc(-c3cccc(C)c3)oc2-c2ccc(Cl)c(F)c2)cc1F [Compound 83, 1-(5-(4-chloro-3-fluorophenyl)-2-(m-tolyl)oxazol-4-yl)-5-fluoro-4-(methylamino)pyrimidin-2(1H)-one] |  |  | 40.3 | > 50
22 | CC1CCc2cn(-c3nc(-c4ccccc4)oc3-c3ccc(F)cc3)c(=O)nc2O1 (stereo not shown) [Compound 92, 3-(5-(4-fluorophenyl)-2-phenyloxazol-4-yl)-7-methyl-3,5,6,7-tetrahydro-2H-pyrano[2,3-d]pyrimidin-2-one] |  |  |  | 1.46
23 | COc1nccc2cc(-c3nc(-n4ccc5cccnc5c4=O)c(-c4ccc(C(F)(F)F)cc4)o3)ccc12 [Compound 124, 7-(2-(1-methoxyisoquinolin-6-yl)-5-(4-(trifluoromethyl)phenyl)oxazol-4-yl)-1,7-naphthyridin-8(7H)-one] |  |  |  | 5.82
24 | O=c1nc2c(ccn2C2CC2)cn1-c1nc(-c2cnc(C3CC3)nc2)oc1-c1ccc(Cl)c(F)c1 [Compound 186, 3-[5-(4-chloro-3-fluorophenyl)-2-(2-cyclopropylpyrimidin-5-yl)-1,3-oxazol-4-yl]-7-cyclopropyl-2H,3H,7H-pyrrolo[2,3-d]pyrimidin-2-one] |  |  |  | 6.27
25 | O=c1nc2c(ccn2C2CC2)cn1-c1nc(-c2ccc(F)cc2)oc1-c1ccccc1 [Compound 213, 7-cyclopropyl-3-(2-(4-fluorophenyl)-5-phenyloxazol-4-yl)-3,7-dihydro-2H-pyrrolo[2,3-d]pyrimidin-2-one] |  |  | 36 | 48
26 | O=c1nc2c(ccn2C2CC2)cn1-c1nc(-c2ccnc(C3CC3)n2)oc1-c1ccc(F)cc1 [Compound 216, 7-cyclopropyl-3-[2-(2-cyclopropylpyrimidin-4-yl)-5-(4-fluorophenyl)-1,3-oxazol-4-yl]-2H,3H,7H-pyrrolo[2,3-d]pyrimidin-2-one] |  |  |  | 1.63
27 | O=c1nc2c(ccn2C(F)(F)F)cn1-c1nc(N2CCCC2)oc1-c1ccc(F)cc1 [Compound 238, 3-[5-(4-fluorophenyl)-2-(pyrrolidin-1-yl)-1,3-oxazol-4-yl]-7-(trifluoromethyl)-2H,3H,7H-pyrrolo[2,3-d]pyrimidin-2-one] |  |  |  | 2.28
28 | O=c1nc2c(ccn2C(F)(F)F)cn1-c1nc(N2CC(F)C2)oc1-c1ccc(F)cc1 [Compound 239] |  | 0.664 |  | 
29 | O=C(Nc1ncc2c(-c3ccccc3)nn(-c3ccccc3)c2n1)C1CC1 [Compound 275] | 0.8 | 1.3 |  | 
